This passage reports TGI and GI50 results from PubChem BioAssay (NCI).

SMILES strings stand for the structures.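 Exposure lasted 48 hours, with cells grown in 96-well plates and compounds tested at five concentrations. Abbreviation: GI50, concentration required for 50% inhibition of growth. Definition used: TGI = concentration required for complete inhibition of growth.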

What all share (assay): NCI-60 cell line screen, 48 h
In test [1] the test system is ACHN renal.
In test [2] the test system is UACC-257 melanoma.
The subject of test [3] is OVCAR-5 ovarian.
Test [4] concerns SW-620 colon.
The subject of test [5] is OVCAR-3 ovarian.
The subject of test [6] is TK-10 renal.
The subject of test [7] is HCT-116 colon.
For test [8], the system named is HCC-2998 colon.
Test [9] has as its system LOX IMVI melanoma.
The subject of test [10] is MDA-MB-435.

On to `COc1ccc2nc3cc(Cl)ccc3c(NCCC(=O)OCC(O)C(O)C(O[C@H](C)C(=O)NC(C)C(=O)NC(CCC(N)=O)C(=O)OCc3ccccc3)C(C=O)NC(C)=O)c2c1` (stereo partly specified), for which the TGI in test [1] is 32.2 µM; in test [2], more than 100 µM; in test [3], 47 µM; in test [4], 30.9 µM; in [5], 34.7 µM; in [6], 46.2 µM. Besides, the TGI in [7] is 31.9 µM; in test [8], 33.6 µM.

Take `COc1cc(-c2cc(/C=C/C(=O)c3ccc4c(c3)OCO4)[nH]n2)cc(OC)c1OC`: the GI50 in [1] is 1.88 µM; in test [2], 2.46 µM; in test [3], 3.37 µM; in test [9], 1.82 µM; in test [5], 3.38 µM; in test [6], 2.33 µM. Also, the GI50 in test [8] is 1.95 µM. For the same molecule, the TGI in test [1] turned out to be 3.71 µM; in test [2], 40.3 µM; in [3], 93.5 µM; in [9], 3.78 µM; in test [5] it was 12.3 µM; in [6] it was 5.73 µM. In test [8], this molecule came in with a TGI of 3.54 µM.

Consider `COc1ccc(C(=O)/C(=N/Nc2ccccc2)c2ccc(OC)cc2)cc1`, for which the TGI in [1], in test [2], in [3], in test [4], in test [6] and in [7] was more than 100 µM in each case. Besides, the TGI in test [8] is more than 100 µM.

For the molecule `Cc1cc(C)nc(NS(=O)(=O)c2ccc(NC(=O)c3cccc4c(Nc5ccc(S(=O)(=O)Nc6nc(C)cc(C)n6)cc5)c5ccccc5nc34)cc2)n1`, the TGI is 49.8 µM in test [1]; 43.2 µM in test [2]; 65.3 µM in test [4]; 38.7 µM in test [9]; 39.8 µM in [5]; 73.3 µM in test [6]. Besides, the TGI in test [7] amounted to 26 µM.

For `O=C(O)CNC(=O)c1ccccc1O`, the TGI in [1], in test [2], in test [3], in test [4], in test [9] and in test [10] was more than 100 µM throughout. Also, the TGI in test [5], in test [6] and in [7] was more than 100 µM in each case.

On to `CN(C)c1ccc(/C=C/C(=O)c2ccccc2)cc1Br`, for which the TGI was 51.1 µM in test [1]; 52.6 µM in test [2]; more than 100 µM in test [3]; 43.8 µM in test [4]; 35.5 µM in test [5]; 74.2 µM in test [6]. This molecule had a TGI in test [8] of 37.5 µM.

Consider `COc1c(OC(C)=O)c(OC(C)=O)cc2c1-c1ccc(OC)c(=O)cc1C(NC(C)=O)CC2` (stereo unspecified), for which the TGI was more than 100 µM in test [1]; more than 100 µM in test [2]; more than 100 µM in [3]; more than 100 µM in test [4]; more than 100 µM in [9]; 0.071 µM in test [5]. Moreover, the results for the TGI in test [6], in test [7] and in [8] were more than 100 µM, 0.942 µM and 24.8 µM, respectively.

As for `C[C@]12CCC3[C@@H](C[C@H]4OC(=O)[C@@]35CCC(=O)C=C45)C1CCC2=O` (stereo partly specified), the TGI in test [1], in test [2], in test [3], in test [4], in [5] and in [6] was more than 100 µM in each case. This molecule registered a TGI in test [8] of more than 100 µM.

With `CCOC(=O)NC(=O)c1cn(CCCCCOC(=O)NCCCCCCNC(=O)OCCCCCn2cc(C(=O)NC(=O)OCC)c(=O)[nH]c2=O)c(=O)[nH]c1=O`, the TGI in [1], in [2], in test [4], in [9], in test [5] and in test [7] was more than 100 µM throughout. The molecule further came in with a TGI in [8] of more than 100 µM.

On to `CN(C)c1ccc(/C=C(\C#N)c2cc3ccccc3n2C)cc1`, for which the GI50 in [1] was 0.386 µM; in [2], 2.98 µM; in test [3], 0.487 µM; in [4] it was 0.0898 µM; in [9], 0.425 µM; in test [5], 0.123 µM. Further, the results for the GI50 in test [6], in [7] and in test [8] were more than 100 µM, 0.101 µM and 0.293 µM, respectively. For the same molecule, the TGI in test [1] was more than 100 µM; in test [2], more than 100 µM; in test [3], more than 100 µM; in test [4] it was more than 100 µM; in [9], more than 100 µM; in test [5] it was 1.27 µM. Further, the TGI in [6] was more than 100 µM; in test [7], more than 100 µM; in [8], more than 43.8 µM.

`CN(C)c1ccccc1CC(c1c[nH]c2ccccc12)c1c[nH]c2ccccc12`: the TGI in [1] was determined as 20.6 µM; in [2] it was 31.8 µM; in test [3], 30.5 µM; in test [4], 19.2 µM; in test [9], 24.4 µM; in [5], 25.6 µM. For the same molecule, the TGI in test [6] is 29.9 µM; in test [7], 23.3 µM; in test [8] it was 22.6 µM.

In the case of `N#Cc1ccc(/C=N\N2C(=O)c3ccccc3C2=O)cc1`, the TGI in test [1], in [2], in test [3], in [4], in test [9] and in test [5] was more than 100 µM in each case. In addition, the TGI in [6], in test [7] and in test [8] was more than 100 µM in each case.

Turning to `O=C1C(c2ccc([N+](=O)[O-])cc2)=[N+]([O-])c2ccccc21`, the TGI is more than 100 µM in test [1]; 47.5 µM in test [3]; more than 100 µM in test [4]; 60.9 µM in test [9]; 55.4 µM in test [5]; 91.9 µM in [6]. Besides, the TGI in test [7] turned out to be 64.3 µM.

For `O=c1c2cc(Br)ccc2[nH]c(=S)n1-c1ccc(Br)cc1`, the TGI in test [1], in [2], in [4], in test [9], in [5] and in [6] was more than 100 µM in each case. The TGI in test [7] and in [8] was more than 100 µM throughout.
